US8022206B2 (OSI Pharmaceuticals, LLC, priority 2008, dated 2011)

Key:
[1] = biological target: MET (human) (Homo sapiens, UniProt P08581); test: MET (human) AlphaScreen kinase assay, Km of ATP; assay type: biochemical; conditions: AlphaScreen, Km of ATP; read-out: Met biochemical IC50
Outline: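 Human MET at lot-optimised concentration in 50 mM Tris pH 7.4 buffer with 1 mM DTT, compound at 1% DMSO final; enzyme starts the reaction, 60 min at RT.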

[2] = biological target: RON (human) (Homo sapiens, UniProt Q04912); test: RON (human) AlphaScreen kinase assay, Km of ATP; assay type: biochemical; conditions: AlphaScreen, Km of ATP; read-out: RON biochemical IC50
Chain of RON (human) (Q04912 25-1400): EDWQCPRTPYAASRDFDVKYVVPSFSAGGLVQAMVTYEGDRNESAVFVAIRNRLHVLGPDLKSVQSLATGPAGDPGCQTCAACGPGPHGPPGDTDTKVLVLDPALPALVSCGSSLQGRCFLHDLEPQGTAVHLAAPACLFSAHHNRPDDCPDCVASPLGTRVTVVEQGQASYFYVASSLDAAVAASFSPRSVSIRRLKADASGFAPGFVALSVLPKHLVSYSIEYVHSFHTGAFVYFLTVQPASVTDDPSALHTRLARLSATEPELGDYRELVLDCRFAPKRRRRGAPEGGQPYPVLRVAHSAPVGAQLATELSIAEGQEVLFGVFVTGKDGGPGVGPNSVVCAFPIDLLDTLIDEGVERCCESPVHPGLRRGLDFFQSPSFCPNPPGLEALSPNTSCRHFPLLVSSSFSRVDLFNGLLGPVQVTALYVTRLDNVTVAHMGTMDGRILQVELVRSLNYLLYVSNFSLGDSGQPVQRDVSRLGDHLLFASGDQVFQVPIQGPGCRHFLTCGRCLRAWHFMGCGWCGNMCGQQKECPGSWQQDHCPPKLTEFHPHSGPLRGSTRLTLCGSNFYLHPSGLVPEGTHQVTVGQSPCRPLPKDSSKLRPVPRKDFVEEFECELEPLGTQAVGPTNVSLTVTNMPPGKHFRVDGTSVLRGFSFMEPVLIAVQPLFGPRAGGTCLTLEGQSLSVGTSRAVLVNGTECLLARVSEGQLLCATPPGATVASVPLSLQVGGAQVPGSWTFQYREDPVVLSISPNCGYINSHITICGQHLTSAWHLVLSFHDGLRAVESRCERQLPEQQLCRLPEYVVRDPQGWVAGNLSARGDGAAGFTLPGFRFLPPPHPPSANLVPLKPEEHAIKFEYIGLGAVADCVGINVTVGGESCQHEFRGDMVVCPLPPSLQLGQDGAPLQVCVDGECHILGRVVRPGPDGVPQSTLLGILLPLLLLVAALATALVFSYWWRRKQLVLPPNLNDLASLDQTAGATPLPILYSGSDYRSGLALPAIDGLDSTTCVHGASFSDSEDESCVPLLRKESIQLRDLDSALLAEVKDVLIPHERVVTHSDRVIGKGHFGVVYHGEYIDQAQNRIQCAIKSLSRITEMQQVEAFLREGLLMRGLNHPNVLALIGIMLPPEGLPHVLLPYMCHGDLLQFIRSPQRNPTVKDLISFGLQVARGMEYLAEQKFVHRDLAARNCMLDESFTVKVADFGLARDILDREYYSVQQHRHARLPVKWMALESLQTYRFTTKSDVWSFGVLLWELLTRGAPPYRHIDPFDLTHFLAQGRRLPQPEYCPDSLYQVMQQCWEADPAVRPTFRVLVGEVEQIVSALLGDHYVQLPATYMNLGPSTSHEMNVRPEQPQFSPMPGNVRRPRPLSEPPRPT
Outline: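 Reaction was started with enzyme and run 30 min at RT. PT66 donor/acceptor beads in an EDTA-containing Tris pH 7.5 buffer were then added, and the signal was read after 1 h.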

Chain of MET (human) (P08581 25-1390): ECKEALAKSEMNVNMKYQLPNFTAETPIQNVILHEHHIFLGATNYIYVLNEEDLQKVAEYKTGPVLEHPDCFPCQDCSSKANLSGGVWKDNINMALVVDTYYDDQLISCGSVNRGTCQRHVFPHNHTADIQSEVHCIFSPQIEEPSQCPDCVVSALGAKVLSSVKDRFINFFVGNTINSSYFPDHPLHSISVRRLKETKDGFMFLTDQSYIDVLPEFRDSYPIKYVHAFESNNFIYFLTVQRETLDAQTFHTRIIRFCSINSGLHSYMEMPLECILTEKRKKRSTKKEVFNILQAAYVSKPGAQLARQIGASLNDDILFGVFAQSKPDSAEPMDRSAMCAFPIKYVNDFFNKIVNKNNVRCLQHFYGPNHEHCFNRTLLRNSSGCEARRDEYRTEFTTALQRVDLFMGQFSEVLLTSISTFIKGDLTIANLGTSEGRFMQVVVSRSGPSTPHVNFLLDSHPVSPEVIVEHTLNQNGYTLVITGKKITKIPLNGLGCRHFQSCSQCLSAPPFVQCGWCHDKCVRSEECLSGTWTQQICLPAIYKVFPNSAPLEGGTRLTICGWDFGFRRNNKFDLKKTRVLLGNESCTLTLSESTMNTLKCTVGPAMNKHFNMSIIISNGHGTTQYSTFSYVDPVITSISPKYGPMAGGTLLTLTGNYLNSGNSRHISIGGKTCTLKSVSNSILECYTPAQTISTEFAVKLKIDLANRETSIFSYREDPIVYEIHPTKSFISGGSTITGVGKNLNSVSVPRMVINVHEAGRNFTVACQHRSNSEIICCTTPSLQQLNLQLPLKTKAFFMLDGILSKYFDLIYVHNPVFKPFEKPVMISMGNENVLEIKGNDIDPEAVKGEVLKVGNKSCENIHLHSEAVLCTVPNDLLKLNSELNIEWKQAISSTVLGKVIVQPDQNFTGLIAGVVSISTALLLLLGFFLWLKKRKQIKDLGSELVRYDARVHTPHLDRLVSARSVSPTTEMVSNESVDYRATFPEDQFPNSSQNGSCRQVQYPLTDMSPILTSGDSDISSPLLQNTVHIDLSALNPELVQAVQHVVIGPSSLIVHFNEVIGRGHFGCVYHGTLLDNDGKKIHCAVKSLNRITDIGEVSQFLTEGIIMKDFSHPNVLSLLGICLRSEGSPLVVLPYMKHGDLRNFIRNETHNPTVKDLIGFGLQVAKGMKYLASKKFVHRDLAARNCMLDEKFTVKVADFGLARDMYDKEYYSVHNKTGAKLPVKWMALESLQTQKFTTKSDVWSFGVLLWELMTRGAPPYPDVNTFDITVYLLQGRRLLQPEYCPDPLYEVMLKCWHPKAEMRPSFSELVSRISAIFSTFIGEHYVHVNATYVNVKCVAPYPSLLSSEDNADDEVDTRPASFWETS

IC50 [1] [nM]	IC50 [2] [nM]	Compound
500 to 5000	5000 to 20000	CCNC(=O)c1csc(-c2coc3c(O[C@H](C)c4c(Cl)ccc(F)c4Cl)c(N)ncc23)c1 [Example 329, 5-{6-Amino-7-[(R)-1-(2,6-dichloro-3-fluorophenyl)ethoxy]furo[3,2-c]pyridin-3-yl}-thiophene-3-carboxylic acid Ethylamide]
500 to 5000	5000 to 20000	C[C@@H](Oc1c(N)ncc2c(-c3cc(C(=O)N4CCN(C)CC4)cs3)coc12)c1c(Cl)ccc(F)c1Cl [Example 332, (5-{6-Amino-7-[(R)-1-(2,6-dichloro-3-fluorophenyl)ethoxy]furo[3,2-c]pyridin-3-yl}thiophen-3-yl)-(4-methylpiperazin-1-yl)methanone]
500 to 5000	500 to 5000	C[C@@H](Oc1c(N)ncc2c(C3=CCN(C(=O)N4CCN(CC(F)(F)F)CC4)CC3)coc12)c1c(Cl)ccc(F)c1Cl [Example 28, (4-{6-Amino-7-[(R)-1-(2,6-dichloro-3-fluorophenyl)-ethoxy]-furo[3,2-c]pyridin-3-yl}-3,6-dihydro-2H-pyridin-1-yl)-[4-(2,2,2-trifluoroethyl)-piperazin-1-yl]-methanone]
< 500	< 500	CC(Cc1cccc(Br)c1)Oc1c(N)ncc2c(-c3cnn(C4CCNCC4)c3)coc12 (centres unmarked) [Example 439, 7-[2-(3-Bromophenyl)-1-methylethoxy]-3-(1-piperidin-4-yl-1H-pyrazol-4-yl)furo[3,2-c]pyridin-6-ylamine]
500 to 5000	500 to 5000	C[C@@H](Oc1c(N)ncc2c(C3=CCN(C(=O)C4(N)CC4)CC3)coc12)c1c(Cl)ccc(F)c1Cl [Example 23, (1-Aminocyclopropyl)-(4-{6-amino-7-[(R)-1-(2,6-dichloro-3-fluorophenyl)-ethoxy]-furo[3,2-c]pyridin-3-yl}-3,6-dihydro-2H-pyridin-1-yl)-methanone]
500 to 5000	500 to 5000	CC(C)[C@@H](O)C(=O)N1CC=C(c2coc3c(O[C@H](C)c4c(Cl)ccc(F)c4Cl)c(N)ncc23)CC1 [Example 268, (2R)-1-[4-{6-Amino-7-[(1R)-1-(2,6-dichloro-3-fluorophenyl)ethoxy]furo[3,2-c]pyridin-3-yl}-3,6-dihydropyridin-1(2H)-yl]-2-hydroxy-3-methylbutan-1-one]
< 500	500 to 5000	C[C@@H](Oc1c(N)ncc2c(-c3cnn(C4CCNCC4)c3)coc12)c1cccc(F)c1 [Example 337, 7-[(R)-1-(3-fluorophenyl)ethoxy]-3-(1-piperidin-4-yl-1H-pyrazol-4-yl)-furo[3,2-c]pyridin-6-ylamine]
< 500	< 500	C[C@@H](Oc1c(N)ncc2c(C3=CCN(C(=O)[C@@H]4CCCN4C)CC3)coc12)c1c(Cl)ccc(F)c1Cl [Example 18, (4-{6-Amino-7-[(R)-1-(2,6-dichloro-3-fluorophenyl)-ethoxy]-furo[3,2-c]pyridin-3-yl}-3,6-dihydro-2H-pyridin-1-yl)-((S)-1-methylpyrrolidin-2-yl)-methanone]
500 to 5000	5000 to 20000	COC(=O)c1coc2c(O[C@H](C)c3c(Cl)ccc(F)c3Cl)c(N)ncc12 [Example 175, 6-Amino-7-[(R)-1-(2,6-dichloro-3-fluorophenyl)ethoxy]furo[3,2-c]pyridine-3-carboxylic acid methyl ester]
500 to 5000	500 to 5000	C[C@@H](Oc1c(N)ncc2c(-c3csc(C(=O)N4CCC(O)CC4)c3)coc12)c1c(Cl)ccc(F)c1Cl [Example 313, (4-{6-Amino-7-[(R)-1-(2,6-dichloro-3-fluorophenyl)ethoxy]-furo[3,2-c]pyridin-3-yl}-thiophen-2-yl)-(4-hydroxypiperidin-1-yl)methanone]
500 to 5000	500 to 5000	C[C@@H](Oc1c(N)ncc2c(-c3cccc(C(=O)NCCN4CCOCC4)c3)coc12)c1c(Cl)ccc(F)c1Cl [Example 97, 3-{6-Amino-7-[(R)-1-(2,6-dichloro-3-fluorophenyl)ethoxy]-furo[3,2-c]pyridin-3-yl}-N-(2-morpholin-4-ylethyl)benzamide]
< 500	500 to 5000	CCNC(=O)N1CC=C(c2coc3c(O[C@H](C)c4c(Cl)ccc(F)c4Cl)c(N)ncc23)CC1 [Example 151, 4-{6-Amino-7-[(1R)-1-(2,6-dichloro-3-fluorophenyl)ethoxy]furo[3,2-c]pyridin-3-yl}-N-ethyl-3,6-dihydropyridine-1(2H)-carboxamide]
< 500	500 to 5000	COCCNC(=O)c1coc2c(O[C@H](C)c3c(Cl)ccc(F)c3Cl)c(N)ncc12 [Example 192, 6-Amino-7-[(R)-1-(2,6-dichloro-3-fluorophenyl)ethoxy]furo[3,2-c]pyridine-3-carboxylic acid (3-methoxyethyl)amide]
500 to 5000	500 to 5000	CNC(=O)c1ccc(-c2coc3c(O[C@H](C)c4c(Cl)ccc(F)c4Cl)c(N)ncc23)cc1 [Example 289, 4-{6-Amino-7-[(R)-1-(2,6-dichloro-3-fluorophenyl)ethoxy]furo[3,2-c]pyridin-3-yl}-N-methylbenzamide]
500 to 5000	5000 to 20000	CNC(=O)c1csc(-c2coc3c(O[C@H](C)c4c(Cl)ccc(F)c4Cl)c(N)ncc23)c1 [Example 327, 5-{6-Amino-7-[(R)-1-(2,6-dichloro-3-fluorophenyl)ethoxy]furo[3,2-c]pyridin-3-yl}thiophene-3-carboxylic acid methylamide]
< 500	< 500	C[C@@H](Oc1c(N)ncc2c(C3=CCN(C(=O)C4CCNCC4)CC3)coc12)c1c(Cl)ccc(F)c1Cl [Example 21, (4-{6-Amino-7-[(R)-1-(2,6-dichloro-3-fluorophenyl)-ethoxy]-furo[3,2-c]pyridin-3-yl}-3,6-dihydro-2H-pyridin-1-yl)-piperidin-4-ylmethanone]
< 500	500 to 5000	Cc1cccc(Cl)c1C(C)Oc1c(N)ncc2c(-c3cnn(C4CCNCC4)c3)coc12 (centres unmarked) [Example 375, 7-[1-(2-Chloro-6-methylphenyl)ethoxy]-3-(1-piperidin-4-yl-1H-pyrazol-4-yl)furo[3,2-c]pyridin-6-ylamine]
< 500	< 500	C[C@@H](Oc1c(N)ncc2c(-c3ccnc(N4CCNCC4)c3)coc12)c1c(Cl)ccc(F)c1Cl [Example 132, 7-[(R)-(2,6-Dichloro-3-fluorophenyl)ethoxy]-3-(2-piperazin-1-yl-pyridin-4-yl)furo[3,2-c]pyridin-6-ylamine]
500 to 5000	500 to 5000	CC(Oc1c(N)ncc2c(-c3cnn(C4CCNCC4)c3)coc12)c1cccc(-c2ccccc2)c1 (centres unmarked) [Example 444, 7-(1-Biphenyl-3-ylethoxy)-3-(1-piperidin-4-yl-1H-pyrazol-4-yl)furo[3,2-c]pyridin-6-ylamine]
500 to 5000	5000 to 20000	C[C@@H](Oc1c(N)ncc2c(C(=O)N(C)C)coc12)c1c(Cl)ccc(F)c1Cl [Example 177, 6-Amino-7-[(R)-1-(2,6-dichloro-3-fluorophenyl)ethoxy]furo[3,2-c]pyridine-3-carboxylic acid dimethylamide]
< 500	500 to 5000	C[C@@H](Oc1c(N)ncc2c(-c3csc(C(=O)NC(C)(C)C)c3)coc12)c1c(Cl)ccc(F)c1Cl [Example 315, 4-{6-Amino-7-[(R)-1-(2,6-dichloro-3-fluorophenyl)ethoxy]-furo[3,2-c]pyridin-3-yl}thiophene-2-carboxylic acid tert-butylamide]
500 to 5000	500 to 5000	CC(Oc1c(N)ncc2c(-c3cnn(C4CCNCC4)c3)coc12)c1c(Cl)ccc2ccccc12 (centres unmarked) [Example 369, 7-[1-(2-Chloronaphthalen-1-yl)ethoxy]-3-(1-piperidin-4-yl-1H-pyrazol-4-yl)furo[3,2-c]pyridin-6-ylamine]
5000 to 20000	5000 to 20000	C[C@@H](Oc1c(N)ncc2c(-c3cc(C(=O)O)cs3)coc12)c1c(Cl)ccc(F)c1Cl [Example 325, 5-{6-Amino-7-[(R)-1-(2,6-dichloro-3-fluorophenyl)ethoxy]furo[3,2-c]pyridin-3-yl}thiophene-3-carboxylic acid]
500 to 5000	500 to 5000	C[C@@H](Oc1c(N)ncc2c(-c3cccc(C(=O)O)c3)coc12)c1c(Cl)ccc(F)c1Cl [Example 80, 3-{6-Amino-7-[(R)-1-(2,6-dichloro-3-fluorophenyl)ethoxy]-furo[3,2-c]pyridin-3-yl}benzoic acid]
500 to 5000	500 to 5000	C[C@H](Cc1ccccc1)Oc1c(N)ncc2c(-c3cnn(C4CCNCC4)c3)coc12 [Example 415, 7-((R)-1-Methyl-2-phenylethoxy)-3-(1-piperidin-4-yl-1H-pyrazol-4-yl)furo[3,2-c]pyridin-6-ylamine]
< 500	< 500	C[C@@H](Oc1c(N)ncc2c(-c3ccc(CN4CCNCC4)s3)coc12)c1c(Cl)ccc(F)c1Cl [Example 217, 7-[(R)-1-(2,6-Dichloro-3-fluorophenyl)ethoxy]-3-(5-piperazin-1-ylmethylthiophen-2-yl)-furo[3,2-c]pyridin-6-ylamine]
500 to 5000	500 to 5000	C[C@@H](Oc1c(N)ncc2c(-c3cnn(C4CCNCC4)c3)c(C#N)oc12)c1c(Cl)ccc(F)c1Cl [Example 169, 6-Amino-7-[(R)-1-(2,6-dichloro-3-fluorophenyl)ethoxy]-3-(1-piperidin-4-yl-1H-pyrazol-4-yl)-furo[3,2-c]pyridine-2-carbonitrile]

Compound	IC50 [1] [nM]	IC50 [2] [nM]
C[C@@H](Oc1c(N)ncc2c(C3=CC4CCC(C3)N4)coc12)c1c(Cl)ccc(F)c1Cl (stereo partly drawn) [Example 153, 3-(8-Azabicyclo[3.2.1]oct-2-en-3-yl)-7-[(1R)-1-(2,6-dichloro-3-fluorophenyl)ethoxy]furo[3,2-c]pyridin-6-amine]	< 500	500 to 5000
